Read-outs that look alike come from different tables or passages of the source. Values belong to the molecule of their own block, whether it stands above or below them.
Tests used:
[1] = system: human umbilical vein endothelial cells; parameters: method as in Lin et al., 2017; Hu et al., 2018; conditions: ref Lin et al., 2017, Hu et al., 2018; cited from earlier work
zebrafish model = system: zebrafish model; parameters: method as in Lin et al., 2017; Hu et al., 2018; conditions: ref Lin et al., 2017, Hu et al., 2018; cited from earlier work
[2] = Multi-component PK in rats after i.v. administration of ASEP; assay type: in vivo, Sprague-Dawley rats
Method: The animal experiments were conducted in line with the Guide for the Care and Use of Laboratory Animals (published by the USA National Institutes of Health, NIH Publication no. 85-23, revised 1996), which were approved by the Animal Care and Use Committee of the College of Animal Science (College of Bee Science), Fujian Agriculture and Forestry University (Approval Number: […]2019004). […] All rats were acclimated to the facilities and environment for 7 days before the experiments. […] The gradient elution was carried out by the mobile phase water with 0.1% formic acid (A) and methanol (B). […] The column temperature and flow rate were at 35 °C and 0.5 ml/min, resepectively. 5 μl sample solution was injected for the HPLC-MS analysis. The electrospray ionization (ESI) source conditions were as follows: block heating temperature was kept at 400 °C; desolvation line temperature was set at 250 °C; dry gas (nitrogen) flow rate was kept at 15 L/min; and auxiliary gas (nitrogen) flow rate was 3 L/min. […] The plasma samples were separated by centrifugation, followed by storing at -20 °C before analysis. […] A DAS 3.0 software (Chinese Pharmacologic Society, Beijing, China) was used to calculate the noncompartmental PK parameters. All the results were presented as mean ± SD, and statistics analysis was done with a single-tailed Student's t test in the work.

insulin resistance [3] = system: insulin resistance; parameters: method as in Ma et al., 2015; conditions: high-fat diet-fed rats; ref Ma et al., 2015; cited from earlier work
[4] = Stability of the compounds in rat plasma (LC-MS validation); assay type: in vitro ADME
Excerpt: According to the “Guidelines for non-clinical pharmacokinetics of drugs” issued by Centre for Drug Evaluation, National Medical Products Administration, China ([Guidelines for non-clinical pharmacokinetics of drugs, 2014]), the LC-MS method was validated by linearity, limits of detection (LOD), limits of quantification (LOQ), precision, accuracy, extraction recovery, matrix effect and stability of the 6 compounds in rat plasma. In brief, blank rat plasma was obtained from the other six rats. The standard mixture solution containing the 6 compounds (with the concentration of 1 mg/ml for each) was diluted with […] to prepare a series of working solution containing the 6 compounds (concentration level: 20, 50, 100, 250, 500 ng/ml and 1, 2.5, 5, 10, 25, 50, 100, 125 150, 200 μg/ml) and IS (2.5μg/ml). For calibration curve, 10 μl of the series of working solution containing the IS (2.5μg/ml) was added into 100 μl of blank plasma. Finally, 15 data points (2, 5, 10, 25, 50, 100, 250, 500 ng/ml and 1, 2.5, 5, 10, 12.5 15, 20 μg/ml) were used in the calibration curve linearity. Calibration curves were plotted by weighted linear regression of the peak area ratio of analyte to the IS against the related nominal concentration of the analyte. LOD and LOQ were defined as the detectable concentration at which the ratio of signal to noise was about 3 and 10, respectively ([Huang et al., 2019]). […] The extraction recovery and matrix effect were also assessed at the above-mentioned three concentration levels for the 6 ingredients in the spiked plasma samples ([Huang et al., 2019]). Stability was examined under the condition of setting un-treated plasma samples at ambient temperature for 6 h, and extracted plasma samples in auto-sampler for 10 h, as well as setting plasma samples for three freeze-thaw cycles and at −80°C for 15 days ([Guidelines for non-clinical pharmacokinetics of drugs, 2014]).

insulin resistance [5] = system: insulin resistance; parameters: method as in Kim et al., 2017; conditions: high-fat diet-fed mice; ref Kim et al., 2017; cited from earlier work
[6] = after ASEP; ref Fan et al., 2015; cited from earlier work
AKT = system: AKT; parameters: method as in Yang et al., 2018; conditions: down-regulates transcriptional activity of FoxO1; ref Yang et al., 2018; cited from earlier work
[7] = extracted plasma samples, 10h in auto-sampler vials, high spiked level (HQC, 8000-16000 ng/mL)
[8] = extracted plasma samples, 10h in auto-sampler vials, low spiked level (LQC, 5-30 ng/mL)
[9] = extracted plasma samples, 10h in auto-sampler vials, middle spiked level (MQC, 400-1600 ng/mL)
[10] = rat plasma, 6h at room temperature, high spiked level (HQC, 8000-16000 ng/mL)
[11] = rat plasma, 6h at room temperature, low spiked level (LQC, 5-30 ng/mL)
[12] = rat plasma, 6h at room temperature, middle spiked level (MQC, 400-1600 ng/mL)
[13] = rat plasma, freeze-thaw stability (three cycles), high spiked level (HQC, 8000-16000 ng/mL)
[14] = rat plasma, freeze-thaw stability (three cycles), low spiked level (LQC, 5-30 ng/mL)
[15] = rat plasma, freeze-thaw stability (three cycles), middle spiked level (MQC, 400-1600 ng/mL)
[16] = rat plasma, long-term stability (-80℃,15 days), high spiked level (HQC, 8000-16000 ng/mL)
[17] = rat plasma, long-term stability (-80℃,15 days), low spiked level (LQC, 5-30 ng/mL)
[18] = rat plasma, long-term stability (-80℃,15 days), middle spiked level (MQC, 400-1600 ng/mL)
[19] = male, Sprague-Dawley, rat, in vivo, iv

- AUC(0-t) ([2]; male, Sprague-Dawley, rat, plasma, iv, 1.76 ml/kg, rat plasma, Low group: single i.v. 1.76 ml/kg of 5 times concentrated ASEP, mean ± SD, n=3, read-out: AUC0-t): 1830 ng·h/mL
- AUC(0-inf) ([2]; male, Sprague-Dawley, rat, plasma, iv, 1.76 ml/kg, rat plasma, Low group: single i.v. 1.76 ml/kg of 5 times concentrated ASEP, mean ± SD, n=3, read-out: AUC0-∞): 1830 ng·h/mL
- clearance ([2]; male, Sprague-Dawley, rat, plasma, iv, 1.76 ml/kg, rat plasma, Low group: single i.v. 1.76 ml/kg of 5 times concentrated ASEP, mean ± SD, n=3, read-out: Cl (converted)): 8.5 mL/min
- MRT last ([2]; male, Sprague-Dawley, rat, plasma, iv, 1.76 ml/kg, rat plasma, Low group: single i.v. 1.76 ml/kg of 5 times concentrated ASEP, mean ± SD, n=3, read-out: MRT0-t): 25.8 ± 1.2 min
- MRT inf ([2]; male, Sprague-Dawley, rat, plasma, iv, 1.76 ml/kg, rat plasma, Low group: single i.v. 1.76 ml/kg of 5 times concentrated ASEP, mean ± SD, n=3, read-out: MRT0-∞): 25.8 ± 1.2 min
- Vd ([2]; male, Sprague-Dawley, rat, plasma, iv, 1.76 ml/kg, rat plasma, Low group: single i.v. 1.76 ml/kg of 5 times concentrated ASEP, mean ± SD, n=3, read-out: Vd): 0.26 ± 0.01 L
- half-life ([2]; male, Sprague-Dawley, rat, plasma, iv, 1.76 ml/kg, rat plasma, Low group: single i.v. 1.76 ml/kg of 5 times concentrated ASEP, mean ± SD, n=3, read-out: t 1/2 (converted)): 21.6 ± 0.6 min
- AUC(0-t) ([2]; male, Sprague-Dawley, rat, plasma, iv, 3.52 ml/kg, rat plasma, High group: single i.v. 3.52 ml/kg of 5 times concentrated ASEP, mean ± SD, n=3, read-out: AUC0-t): 3410 ng·h/mL
- AUC(0-inf) ([2]; male, Sprague-Dawley, rat, plasma, iv, 3.52 ml/kg, rat plasma, High group: single i.v. 3.52 ml/kg of 5 times concentrated ASEP, mean ± SD, n=3, read-out: AUC0-∞): 3420 ng·h/mL
- clearance ([2]; male, Sprague-Dawley, rat, plasma, iv, 3.52 ml/kg, rat plasma, High group: single i.v. 3.52 ml/kg of 5 times concentrated ASEP, mean ± SD, n=3, read-out: Cl (converted)): 9 mL/min
- MRT last ([2]; male, Sprague-Dawley, rat, plasma, iv, 3.52 ml/kg, rat plasma, High group: single i.v. 3.52 ml/kg of 5 times concentrated ASEP, mean ± SD, n=3, read-out: MRT0-t): 25.2 min
- MRT inf ([2]; male, Sprague-Dawley, rat, plasma, iv, 3.52 ml/kg, rat plasma, High group: single i.v. 3.52 ml/kg of 5 times concentrated ASEP, mean ± SD, n=3, read-out: MRT0-∞): 25.8 min
- Vd ([2]; male, Sprague-Dawley, rat, plasma, iv, 3.52 ml/kg, rat plasma, High group: single i.v. 3.52 ml/kg of 5 times concentrated ASEP, mean ± SD, n=3, read-out: Vd): 0.64 L
- half-life ([2]; male, Sprague-Dawley, rat, plasma, iv, 3.52 ml/kg, rat plasma, High group: single i.v. 3.52 ml/kg of 5 times concentrated ASEP, mean ± SD, n=3, read-out: t 1/2 (converted)): 48.6 min
Structure (SMILES): O=C(/C=C/c1ccc(O)c(O)c1)O[C@@H]1C[C@](O)(C(=O)O)C[C@@H](O)[C@H]1O [3-CQA, 3-caffeoylquinic acid]
- effect on VEGF-induced angiogenesis [1]: significant inhibitory effects
- effect on VEGF-induced angiogenesis (zebrafish model): significant inhibitory effects
- effect on insulin resistance (insulin resistance [3]): improve insulin resistance

Structure (SMILES): COc1cc(/C=C/CO)cc(OC)c1O[C@@H]1O[C@H](CO)[C@@H](O)[C@H](O)[C@H]1O [EB, eleutheroside B]
- ingredient concentration in rat plasma ([2]; PK time points 2.5, 5, 10, 15 and 20 min after single i.v. 3.52 ml/kg of 5 times concentrated ASEP, preliminary examination): > 0.5 ng/mL
- AUC(0-t) ([2]; male, Sprague-Dawley, rat, in vivo, iv, 1.76 ml/kg, read-out: AUC0-t): 3040 ng·h/mL
- AUC(0-inf) ([2]; male, Sprague-Dawley, rat, in vivo, iv, 1.76 ml/kg, read-out: AUC0-∞): 3060 ng·h/mL
- clearance ([2]; male, Sprague-Dawley, rat, in vivo, iv, 1.76 ml/kg, read-out: Cl (converted)): 9.17 mL/min
- MRT last ([2]; male, Sprague-Dawley, rat, in vivo, iv, 1.76 ml/kg, read-out: MRT0-t): 26.4 min
- MRT inf ([2]; male, Sprague-Dawley, rat, in vivo, iv, 1.76 ml/kg, read-out: MRT0-∞): 31.2 ± 0.6 min
- Vd ([2]; male, Sprague-Dawley, rat, in vivo, iv, 1.76 ml/kg, read-out: Vd): 3.45 ± 0.1 L
- half-life ([2]; male, Sprague-Dawley, rat, in vivo, iv, 1.76 ml/kg, read-out: t 1/2 (converted)): 261 ± 6 min
- AUC(0-t) ([2]; male, Sprague-Dawley, rat, in vivo, iv, 3.52 ml/kg, read-out: AUC0-t): 4530 ng·h/mL
- AUC(0-inf) ([2]; male, Sprague-Dawley, rat, in vivo, iv, 3.52 ml/kg, read-out: AUC0-∞): 4540 ng·h/mL
- clearance ([2]; male, Sprague-Dawley, rat, in vivo, iv, 3.52 ml/kg, read-out: Cl (converted)): 12.3 mL/min
- MRT last ([2]; male, Sprague-Dawley, rat, in vivo, iv, 3.52 ml/kg, read-out: MRT0-t): 26.4 ± 0.6 min
- MRT inf ([2]; male, Sprague-Dawley, rat, in vivo, iv, 3.52 ml/kg, read-out: MRT0-∞): 30 ± 1.2 min
- Vd ([2]; male, Sprague-Dawley, rat, in vivo, iv, 3.52 ml/kg, read-out: Vd): 3.38 ± 1.15 L
- half-life ([2]; male, Sprague-Dawley, rat, in vivo, iv, 3.52 ml/kg, read-out: t 1/2 (converted)): 190 ± 65.4 min
- half-life ([2]; male, Sprague-Dawley, rat, in vivo, iv, read-out: t 1/2 (elimination in rat blood)): ≥ 190 min
- Stability, RE [4, 7]: 1.92%
- Stability, RE [4, 8]: 12.12%
- Stability, RE [4, 9]: -0.97%
- Stability, RE [4, 10]: -4.48%
- Stability, RE [4, 11]: -5.59%
- Stability, RE [4, 12]: -14.91%
- Stability, RE [4, 13]: -4.14%
- Stability, RE [4, 14]: 4.10%
- Stability, RE [4, 15]: -0.75%
- Stability, RE [4, 16]: 6.11%
- Stability, RE [4, 17]: -8.20%
- Stability, RE [4, 18]: -4.54%
- effect on insulin resistance (insulin resistance [5]): improve insulin resistance
- PK profile in cerebral ischemia-reperfusion rats compared with the normal group [6]: accumulated

Structure (SMILES): C=C[C@@H]1C2=CCOC(=O)C2=CO[C@H]1O[C@@H]1O[C@H](CO)[C@@H](O)[C@H](O)[C@H]1O [GPS, gentiopicroside]
- AUC0-∞ [2, 19]: 118.37 ± 6.75 ng·h/mL
- AUC(0-t) [2, 19]: 108.95 ± 5.92 ng·h/mL
- Cl [2, 19]: 3.83 ± 0.23 L/h
- MRT0-t [2, 19]: 15.6 ± 0.6 min
- MRT0-∞ [2, 19]: 21 ± 2.4 min
- Vd [2, 19]: 1.45 ± 0.16 L
- t 1/2 [2, 19]: 15.6 ± 2.4 min
- AUC(0-t) ([2]; male, Sprague-Dawley, rat, in vivo, iv, AUC0-t): 63.6 ± 2.53 ng·h/mL
- AUC(0-inf) ([2]; male, Sprague-Dawley, rat, in vivo, iv, AUC0-∞): 68.2 ± 1.88 ng·h/mL
- clearance ([2]; male, Sprague-Dawley, rat, in vivo, iv, Cl): 55.3 mL/min
- MRT last ([2]; male, Sprague-Dawley, rat, in vivo, iv, MRT0-t): 21.6 ± 0.6 min
- MRT inf ([2]; male, Sprague-Dawley, rat, in vivo, iv, MRT0-∞): 25.2 ± 3 min
- Vd ([2]; male, Sprague-Dawley, rat, in vivo, iv, Vd): 1.08 ± 0.26 L
- half-life ([2]; male, Sprague-Dawley, rat, in vivo, iv, t 1/2): 13.8 ± 3.6 min
- effect on phosphorylation of AKT (AKT): activate the phosphorylation of AKT
- Stability, RE [4, 7]: -9.29%
- Stability, RE [4, 8]: 10.09%
- Stability, RE [4, 9]: 2.52%
- Stability, RE [4, 10]: -13.56%
- Stability, RE [4, 11]: -10.12%
- Stability, RE [4, 12]: -6.72%
- Stability, RE [4, 13]: -2.10%
- Stability, RE [4, 14]: 14.78%
- Stability, RE [4, 15]: 1.22%
- Stability, RE [4, 16]: 9.68%
- Stability, RE [4, 17]: 12.72%
- Stability, RE [4, 18]: 4.29%
